Patent US7332482B2, “Method for treating benign prostatic hyperplasia” (BioXell S.p.A., priority 2003, dated 2008)
Entries after “also recorded” stand apart in the source; their conditions may differ. Marks after values point to notes of the source that are not given here.

What was measured:
[1] = Serum calcium measurement in rats; format: in vivo, rat; details: for calcemia: T-replaced castrated rats
Method: (§1) Male Sprague Dawley rats (28 days old) were purchased from Charles River Laboratories (Calco, Lecco, Italy). All animal experimentation described was conducted in accord with accepted standards of animal care. Castration was performed via the scrotal route under ketamine/xylazine anaesthesia.
Serum calcium levels were measured with a commercially available colorimetric assay (Sigma), according to the manufacturers' instructions.

[2] = system: prostate volume in patients with BPH; test: Randomised double blind placebo controlled study in patients with BPH; format: in vivo, human
Method: A randomised double blind placebo controlled parallel group study was performed to determine the effect of Compound A (1-alpha-fluoro-25-hydroxy-16,23E-diene-26,27-bishomo-20-epi-cholecalciferol) in patients with BPH.
The principal inclusion criterion was that male patients be diagnosed with BPH and have prostate volume >40 ml as determined by transrectal ultrasound (TRUS).
Statistical methods: primary efficacy analyses were planned on Per-Protocol (PP) Population and, as support, the same analyses were to be done on Intent-to-treat population. Patients evaluatable for the Per-Protocol analysis were all randomized patients compliant to protocol criteria who completed the whole course of study without major protocol violations and have valid assessments of prostate volume. Patients valid for intent-to-treat (ITT) population were all randomized patients who received at least one dose of trial medication and for whom the prostate volume at baseline and at 12 weeks visit were available.
All patients randomized who took at least one dose of study drug were evaluated for safety analysis.
The primary efficacy variable was the percentage change of prostate volume, measured by centralized MRI axial scanning. An ANOVA model was used for the analysis, with treatment and center as fixed effects.
Study participants received 150 μg capsule (as per Example 4A with drug omitted in the case of placebo) once daily in the morning. The treatment period was 12 weeks.

[3] = system: rat ventral prostate; test: Clusterin expression (Northern, immunohistochemistry) and TUNEL in rat ventral prostate; format: in vivo
Method: Total RNA was extracted using RNAFast from Molecular System (San Diego, Calif.). Blotting, labelling, hybridization conditions and probes (rat clusterin 1.5 Kb full-length cDNA and GAPDH 1.2 Kb full-length cDNA) were performed according to the reported procedures (Bettuzzi et al, Biochemical Journal, (1989), 257, p 293-296 and Marinelli et al, Biochemistry and Cell Biology, (1994), 72, p 515-521). Quantitation of the autoradiograms was obtained by densitometric scanning using an LKB Ultrascan XL densitometer.
All the cryostatic sections obtained from controls and treated rats were processed in parallel as previously described (Astancolle et al, Journal of Endocrinology, (2000), 167, p 197-204). For every experimental condition, 3 alternate sections from 3 different rat prostates were examined. […] Counterstaining was performed with haematoxylin, and cover slips were mounted with Eukitt (O. Kindler GmbH & Co, Germany). Digital high-magnification colour images were acquired by a CCD camera through the microscope.
DNA fragmentation in prostate cryostatic sections, assessed by terminal deoxynucleotidyl transferase (TdT)-mediated dUTP nick end-labelling (TUNEL), was performed using the In Situ Cell Death Detection Kit (POD, Roche) as recommended by the manufacturer. TUNEL positive apoptotic nuclei were documented by digital high-magnification colour images acquired by a CCD camera through the microscope. Counterstaining was performed with eosin, and cover slips were mounted with Eukitt (O Kindler GmbH & Co, Germany).

[4] = system: prostate; test: 9-month toxicity study in male beagle dogs (prostate weight); format: in vivo, dog
Method: A 9-month toxicity study was carried out in four groups of male beagle dogs, which were treated by daily oral gavage with 0.5 μg, 1.5 μg and 5 μg/kg body weight/day of Compound A (in vehicle Miglyol 812) or with vehicle alone. This treatment was followed by a 2-month recovery period for the group receiving the highest dose, 5 μg, after which prostate weights was measured.

[5] = system: rat ventral prostate; test: Ventral prostate growth in castrated, T enanthate-supplemented rats; format: in vivo; details: castrated rats + T enanthate 30 mg/Kg/week; oral, 9 administrations; Compound A 10-300 μg/Kg, finasteride 10, 40 mg/Kg
Method: as §1

[6] = system: rat ventral prostate; test: Ventral prostate growth in intact adult rats
Excerpt: Rat ventral prostate glands were rapidly excised out, weighed and quickly frozen in dry ice.

[7] = system: BPH cells; test: In situ end labeling (ISEL) of apoptotic BPH cells; format: cell-based, human
Method: Human BPH cells, prepared, maintained and used as previously described in Crescioli C, et al. Journal of Clinical and Endocrinology Metabolism (2000) 85 p 2576-2583, were obtained from prostate tissues derived from 5 patients, who underwent suprapubic adenomectomy for BPH, after informed consent and approval by the Local Ethical Committee.
ISEL was performed onto BPH cells using Apop Tag in situ apoptosis detection kit peroxydase following the manufacturer's instruction. Cells were incubated with T (10 nM), KGF (10 ng/ml) or Des(1-3)IGF-I (10 ng/ml) with or without Compound A (10 nM). The percentage of apoptotic cells (the number of stained cells divided by the total number of cells) was calculated in at least five separate fields per slide in five different slides. Results are expressed as mean±SEM from three separate experiments.

C=C1/C(=C\C=C2/CCC[C@]3(C)C([C@@H](C)C/C=C/C(O)(CC)CC)=CC[C@@H]23)C[C@@H](O)C[C@@H]1F [Compound A, 1-alpha-fluoro-25-hydroxy-16,23E-diene-26,27-bishomo-20-epi-cholecalciferol]
calcemia ([1]; 10 μg/Kg): 10.16 ± 0.24 mg/dL
calcemia ([1]; 30 μg/Kg): 9.87 ± 0.15 mg/dL
calcemia ([1]; 100 μg/Kg): 10.55 ± 0.18 mg/dL
calcemia ([1]; 300 μg/Kg): 10.85 ± 0.1 mg/dL
other side effects ([1]; all rat protocols, oral): No other discernible side effects
hypercalcemia ([1]; all rat protocols, oral 10-300 μg/Kg): very modest hypercalcemia only at the highest dose tested
severe adverse events ([2]; 12 weeks): no severe adverse event was reported
proportion of responders ([2]; ITT population): 28.8%
reduction of prostate volume vs placebo ([2]; ITT population, axial scanning): more effective than placebo
mean difference of prostate volume vs baseline in non responder patients ([2]; PP population): 3.93±0.8
mean difference of prostate volume vs baseline in unchanged patients ([2]; PP population): −0.35±2.3
mean reduction of prostate volume vs baseline in responder patients ([2]; PP population): −6.88±2.5
percentage change of prostate volume, paraxial acquisition ([2]; PP population): −1.30±6.9%
percentage change of prostate volume, transitional scanning ([2]; PP population): −0.22±9.6%
proportion of patients not responder ([2]; PP population): 7.5%
proportion of responders ([2]; PP population): 27.5%
proportion of unchanged patients ([2]; PP population): 65%
percentage change in prostate volume, axial scanning ([2]; PP population, 150 μg once daily, 12 weeks, MRI): −1.89±5.2%
estimate of difference between treatments (Compound A minus placebo), percentage change in prostate volume ([2]; PP population, axial scanning, 95% confidence limit −9.54 and −4.94): −7.24
number of patients with adverse events related to treatment ([2]; safety population): 3
patients with adverse events related to treatment ([2]; safety population): 5.26%
number of patients with at least one adverse event ([2]; safety population, 57 randomised): 17
calciuria values over the course of the study ([2]; vs Placebo group): did not differ significantly
DNA fragmentation / apoptosis in ventral prostate (TUNEL) ([3]; castrated T-supplemented rats, 100 and 300 μg/Kg, 9 administrations): induced an evident nuclear fragmentation in epithelial and stromal cells; also recorded: induced massive apoptosis in the majority of epithelial and stromal cells
clusterin staining and apoptosis in prostate (immunohistochemistry, TUNEL) ([3]; intact adult rats, Compound A 10, 30, 100 μg/Kg, finasteride 40 mg/Kg): induced clusterin expression; also recorded: dose-dependently stained for clusterin
clusterin mRNA expression in ventral prostate (Northern) ([3]; intact rats, one month, 30 and 100 μg/Kg): induced a sustained increase
clusterin mRNA expression in ventral prostate (Northern) ([3]; orchidectomized T-supplemented rats, Compound A 300 and 100 μg/Kg, F 40 mg/Kg): partially blunted the T-induced down-regulation of clusterin gene expression
prostate weight after recovery ([4]; 5 μg/kg/day 9 months then 2-month recovery, vs vehicle): reduction of prostate weight
toxicity data ([4]; 9 months daily oral gavage): entirely favourable toxicity data
prostate weight at end of treatment ([4]; 9 months daily oral gavage, 0.5, 1.5, 5 μg/kg/day, vs vehicle): lower prostate weight; also recorded: clear reduction of prostate weight
effect on T-stimulated prostate over-growth (ventral prostate weight) [5]: completely blunted
maximal reduction of ventral prostate weight ([6]; one month oral, 300 μg/Kg): 30%
effect on ventral prostate weight ([6]; one-month oral treatment, 10-300 μg/Kg): significantly decreased
change in percentage of apoptotic nuclei vs untreated cells ([7]; 48 h, Compound A 10 nM, T 10 nM, GFs 10 ng/ml): 270%
Apoptotic index (%) ([7]; Compound A 10 nM alone, ISEL): 68.44 ± 1.26^a %
Apoptotic index (%) ([7]; Compound A 10 nM with Des(1-3)IGF-I 10 ng/ml): 45.85 ± 0.66^a,b,c %
increase in number of ISEL-positive BPH cells in the presence of GFs or T ([7]; Compound A 10 nM with GFs or T): more than 250%
Apoptotic index (%) ([7]; Compound A 10 nM with KGF 10 ng/ml): 44.46 ± 0.57^a,b,c %
Apoptotic index (%) ([7]; Compound A 10 nM with T 10 nM): 49.06 ± 1.87^a,b,c %
